In US20230059136A1, “THE COMPOUNDS AND COMPOSITIONS FOR TREATING CONDITIONS ASSOCIATED WITH NLRP ACTIVITY” (Novartis AG, priority 2018, published 2023):

system: IL-1β production in PMA-differentiated THP-1 cells; assay: IL-1β production in PMA-differentiated THP-1 cells stimulated with gramicidin (hTHP-1 assay containing 2% fetal bovine serum); type: cell-based, human; conditions: Homo sapiens, THP-1, Table B1; 2% fetal bovine serum; cells printed as numeric bound; read-out: hTHP-1 IC50 (Average IC50 of compounds in hTHP-1 assay)
Summary of the method: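 THP-1 cells were differentiated with PMA 20 ng/ml for 16-18 h, then plated at 50,000 cells/well in RPMI with 2% FBS. They were preincubated 1 h with compound (100–0.0017 μM final, 0.37% DMSO), then stimulated with gramicidin 5 μM for 2 h. Supernatant IL-1β was measured by HTRF.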

| IC50 [µM] | SMILES |
| --- | --- |
| > 30 | CC(C)c1cc2c(c(C(C)C)c1CC(=O)N=S(N)(=O)c1ccc(C(C)(C)O)cc1)COC2 (single isomer, unassigned) [Example 302, (S) or (R)-N-(amino(4-(2-hydroxypropan-2-yl)phenyl)(oxo)-λ^6-sulfaneylidene)-2-(4,6-diisopropyl-1,3-dihydroisobenzofuran-5-yl)acetamide] |
| > 30 | CC(C)c1cc2c(c(C(C)C)c1CC(=O)N=S(N)(=O)c1cccc(C(C)(C)O)c1)COC2 (single isomer, unassigned) [Example 304, (S) or (R)-N-(amino(3-(2-hydroxypropan-2-yl)phenyl)(oxo)-λ^6-sulfaneylidene)-2-(4,6-diisopropyl-1,3-dihydroisobenzofuran-5-yl)acetamide] |
| > 30 | CC(C)c1cc(C(F)F)nc(C(C)C)c1CC(=O)N=S(N)(=O)c1sc(CN(C)C)cc1F (single isomer, unassigned) [Example 305, (S) or (R)-N-(amino(5-((dimethylamino)methyl)-3-fluorothiophen-2-yl) (oxo)-λ^6-sulfaneylidene)-2-(6-(difluoromethyl)-2,4-diisopropylpyridin-3-yl)acetamide] |
| > 30 | CC(C)c1cc2c(c(C(C)C)c1CC(=O)N=S(N)(=O)c1sc(CN(C)C)cc1F)COC2 (single isomer, unassigned) [Example 308, (S) or (R)-N-(amino(5-((dimethylamino)methyl)-3-fluorothiophen-2-yl)(oxo)-λ^6-sulfaneylidene)-2-(4,6-diisopropyl-1,3-dihydroisobenzofuran-5-yl)acetamide] |
| > 30 | CC(C)c1cc2c(c(C(C)C)c1CC(=O)N=S(N)(=O)c1cnn3c1OCCC3)COC2 (single isomer, unassigned) [Example 309, (S) or (R)-N-(amino (6,7-dihydro-5H-pyrazolo[5,1-b][1,3]oxazin-3-yl)(oxo)-λ^6-sulfaneylidene)-2-(4,6-diisopropyl-1,3-dihydroisobenzofuran-5-yl)acetamide] |
| > 30 | CC(C)(O)c1ncc(S(N)(=O)=NC(=O)Cc2cc3c(c4c2CCC4)CCC3)s1 (single isomer, unassigned) [Example 314, (S) or (R)-N-(amino(2-(2-hydroxypropan-2-yl)thiazol-5-yl)(oxo)-λ^6-sulfaneylidene)-2-(1,2,3,6,7,8-hexahydro-as-indacen-4-yl)acetamide] |
| > 30 | CC(C)c1cnc(F)c(C(C)C)c1CC(=O)N=S(N)(=O)c1cnc(C(C)(C)O)s1 (single isomer, unassigned) [Example 316, (S) or (R)-N-(amino(2-(2-hydroxypropan-2-yl)thiazol-5-yl)(oxo)-λ^6-sulfaneylidene)-2-(2-fluoro-3,5-diisopropylpyridin-4-yl)acetamide] |
| > 30 | CC(C)c1cc2c(c(C(C)C)c1CC(=O)N=S(N)(=O)c1cnc(C(C)(C)O)s1)COC2=O (single isomer, unassigned) [Example 318, (S) or (R)-N-(amino(2-(2-hydroxypropan-2-yl)thiazol-5-yl)(oxo)-λ^6-sulfaneylidene)-2-(4,6-diisopropyl-1-oxo-1,3-dihydroisobenzofuran-5-yl)acetamide] |
| > 30 | CC(C)c1cc2c(c(C(C)C)c1CC(=O)N=S(N)(=O)c1ccn(C(F)F)n1)COC2 (single isomer, unassigned) [Example 320, (S) or (R)-N-(amino(1-(difluoromethyl)-1H-pyrazol-3-yl)(oxo)-λ^6-sulfaneylidene)-2-(4,6-diisopropyl-1,3-dihydroisobenzofuran-5-yl)acetamide] |

same assay, conditions: Homo sapiens, THP-1, Table B1; 2% fetal bovine serum; class symbols; read-out: hTHP-1 IC50 (Average IC50 of compounds in hTHP-1 assay)

| IC50 [µM] | SMILES |
| --- | --- |
| 1 to 5 | CC(C)c1cc2c(c(C(C)C)c1CC(=O)N=S(N)(=O)c1ccc(C(C)(C)O)cc1)COC2 (single isomer, unassigned) [Example 301, (R) or (S)-N-(amino(4-(2-hydroxypropan-2-yl)phenyl)(oxo)-λ^6-sulfaneylidene)-2-(4,6-diisopropyl-1,3-dihydroisobenzofuran-5-yl)acetamide] |
| 1 to 5 | CC(C)c1cc2c(c(C(C)C)c1CC(=O)N=S(N)(=O)c1cccc(C(C)(C)O)c1)COC2 (single isomer, unassigned) [Example 303, (R) or (S)-N-(amino(3-(2-hydroxypropan-2-yl)phenyl)(oxo)-λ^6-sulfaneylidene)-2-(4,6-diisopropyl-1,3-dihydroisobenzofuran-5-yl)acetamide] |
| 0.2 to 1 | CC(C)c1cc(C(F)F)nc(C(C)C)c1CC(=O)N=S(N)(=O)c1sc(CN(C)C)cc1F (single isomer, unassigned) [Example 306, (R) or (S)-N-(amino(5-((dimethylamino)methyl)-3-fluorothiophen-2-yl)(oxo)-λ^6-sulfaneylidene)-2-(6-(difluoromethyl)-2,4-diisopropylpyridin-3-yl)acetamide] |
| 0.2 to 1 | CC(C)c1cc2c(c(C(C)C)c1CC(=O)N=S(N)(=O)c1sc(CN(C)C)cc1F)COC2 (single isomer, unassigned) [Example 307, (R) or (S)-N-(amino(5-((dimethylamino)methyl)-3-fluorothiophen-2-yl)(oxo)-λ^6-sulfaneylidene)-2-(4,6-diisopropyl-1,3-dihydroisobenzofuran-5-yl)acetamide] |
| 1 to 5 | CC(C)c1cc2c(c(C(C)C)c1CC(=O)N=S(N)(=O)c1cnn3c1OCCC3)COC2 (single isomer, unassigned) [Example 310, (R) or (S)-N-(amino (6,7-dihydro-5H-pyrazolo[5,1-b][1,3]oxazin-3-yl)(oxo)-λ^6-sulfaneylidene)-2-(4,6-diisopropyl-1,3-dihydroisobenzofuran-5-yl)acetamide] |
| 5 to 30 | CC(C)(O)c1ncc(S(N)(=O)=NC(=O)Cc2cc3c(c4c2CCC4)CCC3)s1 (single isomer, unassigned) [Example 313, (R) or (S)-N-(amino(2-(2-hydroxypropan-2-yl)thiazol-5-yl)(oxo)-λ^6-sulfaneylidene)-2-(1,2,3,6,7,8-hexahydro-as-indacen-4-yl)acetamide] |
| 5 to 30 | CC(C)c1cnc(F)c(C(C)C)c1CC(=O)N=S(N)(=O)c1cnc(C(C)(C)O)s1 (single isomer, unassigned) [Example 315, (R) or (S)-N-(amino(2-(2-hydroxypropan-2-yl)thiazol-5-yl)(oxo)-λ^6-sulfaneylidene)-2-(2-fluoro-3,5-diisopropylpyridin-4-yl)acetamide] |
| 1 to 5 | CC(C)c1cc2c(c(C(C)C)c1CC(=O)N=S(N)(=O)c1cnc(C(C)(C)O)s1)COC2=O (single isomer, unassigned) [Example 317, (R) or (S)-N-(amino(2-(2-hydroxypropan-2-yl)thiazol-5-yl)(oxo)-λ^6-sulfaneylidene)-2-(4,6-diisopropyl-1-oxo-1,3-dihydroisobenzofuran-5-yl)acetamide] |
| 5 to 30 | CC(C)c1cc2c(c(C(C)C)c1CC(=O)N=S(N)(=O)c1ccn(C(F)F)n1)COC2 (single isomer, unassigned) [Example 319, (R) or (S)-N-(amino(1-(difluoromethyl)-1H-pyrazol-3-yl)(oxo)-λ^6-sulfaneylidene)-2-(4,6-diisopropyl-1,3-dihydroisobenzofuran-5-yl)acetamide] |

same assay, conditions: Table B1; 2% fetal bovine serum; class symbols; read-out: hTHP-1 IC50 (Average IC50 of compounds in hTHP-1 assay)

| IC50 [µM] | SMILES |
| --- | --- |
| 5 to 30 | CCc1c2c(cc(C(C)C)c1CC(=O)N=S(N)(=O)c1sc(C(C)(C)O)cc1F)COC2 (single isomer, unassigned) [Example 299, (S) or (R)-N-(amino (3-fluoro-5-(2-hydroxypropan-2-yl)thiophen-2-yl)(oxo)-λ^6-sulfaneylidene)-2-(4-ethyl-6-isopropyl-1,3-dihydroisobenzofuran-5-yl)acetamide] |
| 0.2 to 1 | CCc1c2c(cc(C(C)C)c1CC(=O)N=S(N)(=O)c1sc(C(C)(C)O)cc1F)COC2 (single isomer, unassigned) [Example 300, (R) or (S)-N-(amino (3-fluoro-5-(2-hydroxypropan-2-yl)thiophen-2-yl)(oxo)-λ^6-sulfaneylidene)-2-(4-ethyl-6-isopropyl-1,3-dihydroisobenzofuran-5-yl)acetamide] |
| 5 to 30 | CC(C)c1ccc(F)c(C(C)C)c1CC(=O)N=S(N)(=O)c1cnn2c1OCCC2 (single isomer, unassigned) [Example 311, (S) or (R)-N-(amino (6,7-dihydro-5H-pyrazolo[5,1-b][1,3]oxazin-3-yl)(oxo)-λ^6-sulfaneylidene)-2-(3-fluoro-2,6-diisopropylphenyl) acetamide] |
| 0.2 to 1 | CC(C)c1ccc(F)c(C(C)C)c1CC(=O)N=S(N)(=O)c1cnn2c1OCCC2 (single isomer, unassigned) [Example 312, (R) or (S)-N-(amino (6,7-dihydro-5H-pyrazolo[5,1-b][1,3]oxazin-3-yl)(oxo)-λ^6-sulfaneylidene)-2-(3-fluoro-2,6-diisopropylphenyl) acetamide] |
| 0.04 to 0.2 | CC(C)c1cc2c(c(C(C)C)c1CC(=O)N=S(N)(=O)c1sc(C(C)(C)O)cc1F)COC2 (single isomer, unassigned) [Example 321, (R) or (S)-N-(amino (3-fluoro-5-(2-hydroxypropan-2-yl)thiophen-2-yl)(oxo)-λ^6-sulfaneylidene)-2-(4,6-diisopropyl-1,3-dihydroisobenzofuran-5-yl)acetamide] |
| 5 to 30 | CC(C)c1cc2c(c(C(C)C)c1CC(=O)N=S(N)(=O)c1sc(C(C)(C)O)cc1F)COC2 (single isomer, unassigned) [Example 322, (S) or (R)-N-(amino (3-fluoro-5-(2-hydroxypropan-2-yl)thiophen-2-yl)(oxo)-λ^6-sulfaneylidene)-2-(4,6-diisopropyl-1,3-dihydroisobenzofuran-5-yl)acetamide] |
